Experimental data published in patent US8859534B2, “2-carboxamide-7-piperazinyl-benzofuran derivatives” (AstraZeneca AB, priority 2009, dated 2014).

Legend:
5-HT1A receptor = 5-HT1A receptor (Homo sapiens (Human), UniProt P08908); assay: 5-HT1A receptor competition binding assay (SPA, [3H]-8-OH-DPAT); settings: membranes of CHO cells expressing 5-HT1A receptors; radioligand [3H]-8-OH-DPAT 0.15-0.2 nM
From the text: (§1) Assays that were used to measure affinity of the compounds of the present invention for 5-HT1A and 5-HT1B receptors are described in J. Recept Signal Transduct. Res. 22:483-495 (2002) and Naunyn-Schmiedeberg's Arch Pharmacol. 356:328-334 (1997) and incorporated by reference herein. These assays were be used with some modifications:
(§2) For the binding assay stably transfected chinese hamster ovary (CHO) cell lines expressing 5-HT1A receptors or 5-HT1B receptors were harvested by centrifugation at 300×g for 10 min and resuspended in 10 mM Tris-HCl, 5 mM EDTA at pH 7.4. The cells were pooled, recentrifuged and resuspended before homogenisation using a Dounce homogeniser (“type B”). Cell membranes were centrifuged at 48 000×g for 10 min and then resuspended in harvesting buffer using an Ultra-Turrax T8 (IKA Labortechnik, Germany), aliquots were stored frozen in −70° C.
Frozen membrane preparations were thawed, homogenized with an Ultra-Turrax and mixed with SPA beads (YSI coated WGA, GE Healthcare/Amersham, Buckinghamshire, UK) in assay buffer containing 50 mM Tris-Base, 4 mM MgCl2, 4 mM CaCl2 (only 5-HT1B), 1 mM EDTA, and adjusted to pH 7.4 with HCl. […] The binding assays were performed in 384-well plates in a final volume of 90 μL/well with the following additions: 9 μL binding buffer; 1 μL compound/DMSO/nonspecific; 20 μL radioligand; and 60 μL beads/membrane mixture. Non-specific binding was defined by using 10 μM WAY100635 for 5-HT1A and 10 μM Methiothepin for 5-HT1B. The assay plates were incubated for 4 hours where after the plates are counted in a Wallac 1450 Microbeta Trilux counter (PerkinElmer LifeScience, US) or similar. Data from the experiments were analyzed using a four parameter logistic equation as follows: Y=Bottom+(Top-Bottom)/1+10^(LogEC50-X)nH.

5-HT1B receptor = 5-HT1B receptor (Homo sapiens (Human), UniProt P28222); assay: 5-HT1B receptor competition binding assay (SPA, [3H]-GR125743); settings: for Ki: membranes of CHO cells expressing 5-HT1B receptors, radioligand [3H]-GR125743 0.15-0.2 nM
From the text: as §1, §2
Frozen membrane preparations were thawed, homogenized with an Ultra-Turrax and mixed with SPA beads (YSI coated WGA, GE Healthcare/Amersham, Buckinghamshire, UK) in assay buffer containing 50 mM Tris-Base, 4 mM MgCl2, 4 mM CaCl2 (only 5-HT1B), 1 mM EDTA, and adjusted to pH 7.4 with HCl. The beads/membrane solution, final concentration 100 pM receptors for 5-HT1A, 300 pM receptors for 5-HT1B and 0.5 mg SPA beads/well, was pre-incubated in room temperature with stirring for 30-60 min. […] Five (log interval, 10 μM to 1 nM, final concentration) or ten serial dilutions (½-log interval, 10 μM to 0.32 nM, final concentration) of compounds were prepared in DMSO from 10 mM stock solutions. The binding assays were performed in 384-well plates in a final volume of 90 μL/well with the following additions: 9 μL binding buffer; 1 μL compound/DMSO/nonspecific; 20 μL radioligand; and 60 μL beads/membrane mixture. Non-specific binding was defined by using 10 μM WAY100635 for 5-HT1A and 10 μM Methiothepin for 5-HT1B. The assay plates were incubated for 4 hours where after the plates are counted in a Wallac 1450 Microbeta Trilux counter (PerkinElmer LifeScience, US) or similar. Data from the experiments were analyzed using a four parameter logistic equation as follows: Y=Bottom+(Top-Bottom)/1+10^(LogEC50-X)nH.
• Jerning E., Rosqvist S., Mohell N. (2002) NAD-299 antagonises 5-HT-stimulated and Spiperone-inhibited [^35S]GTPγS binding in cloned 5-HT1A receptors. J Recept Signal Transduct Res 22:483-495. • Doménech T., Beleta J., Palacios J. M. (1997) Characterization of human serotonin 1D and 1B receptors using [^3H]-GR-125743, a novel radiolabelled serotonin 5HT1D/1B receptor antagonist. Naunyn-Schmiedeberg's Arch Pharmacol 356:328-334.

5-HT1B receptor, sequence (P28222 whole entry): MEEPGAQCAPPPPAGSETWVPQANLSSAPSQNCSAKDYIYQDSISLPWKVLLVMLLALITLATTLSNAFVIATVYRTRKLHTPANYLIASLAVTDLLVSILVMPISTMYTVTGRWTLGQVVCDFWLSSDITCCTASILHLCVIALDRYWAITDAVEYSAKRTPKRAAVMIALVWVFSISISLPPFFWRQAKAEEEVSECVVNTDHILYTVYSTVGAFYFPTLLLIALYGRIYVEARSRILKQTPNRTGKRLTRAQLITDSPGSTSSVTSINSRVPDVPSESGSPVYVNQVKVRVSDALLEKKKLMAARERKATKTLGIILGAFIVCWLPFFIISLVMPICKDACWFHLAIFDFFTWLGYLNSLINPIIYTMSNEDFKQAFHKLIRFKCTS
5-HT1A receptor, sequence (P08908 whole entry): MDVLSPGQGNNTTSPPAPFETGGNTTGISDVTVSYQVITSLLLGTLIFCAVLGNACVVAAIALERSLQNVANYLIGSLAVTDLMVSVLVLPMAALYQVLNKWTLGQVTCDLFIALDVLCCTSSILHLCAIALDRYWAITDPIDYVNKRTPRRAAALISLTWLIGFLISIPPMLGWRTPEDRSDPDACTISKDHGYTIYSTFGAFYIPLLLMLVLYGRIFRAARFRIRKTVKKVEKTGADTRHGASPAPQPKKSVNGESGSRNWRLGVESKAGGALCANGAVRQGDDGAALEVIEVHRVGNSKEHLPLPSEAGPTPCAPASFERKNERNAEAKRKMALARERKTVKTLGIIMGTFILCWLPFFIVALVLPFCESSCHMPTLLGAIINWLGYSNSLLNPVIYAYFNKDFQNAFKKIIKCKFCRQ

Ki (5-HT1A receptor)	Ki (5-HT1B receptor)	Kd (5-HT1B receptor; 5-HT1B receptor, Kd used in the calculation of Ki, read-out: Kd of radioligand, saturation binding studies)	Compound
1.3 nM	19 nM	–	O=C(NCc1ccccn1)c1cc2cccc(N3CCN(CCc4ccccn4)CC3)c2o1 [Example 1, 7-(4-(2-(Pyridin-2-yl)ethyl)piperazin-1-yl)-N-(pyridin-2-ylmethyl)benzofuran-2-carboxamide]
1.3 nM	1.1 nM	–	O=C(Nc1ccc(N2CCOCC2)cc1)c1cc2cccc(N3CCN(CCc4ccccn4)CC3)c2o1 [Example 2, N-(4-Morpholinophenyl)-7-(4-(2-(pyridin-2-yl)ethyl)piperazin-1-yl)benzofuran-2-carboxamide]
0.14 nM	0.52 nM	–	O=C(NC1CCN(c2ccccc2)CC1)c1cc2cccc(N3CCN(CCc4ccccn4)CC3)c2o1 [Example 3, N-(1-Phenylpiperidin-4-yl)-7-(4-(2-(pyridin-2-yl)ethyl)piperazin-1-yl)benzofuran-2-carboxamide]
0.2 nM	1.8 nM	–	CS(=O)(=O)c1ccc(CNC(=O)c2cc3cccc(N4CCN(CCc5ccccn5)CC4)c3o2)cc1 [Example 4, N-(4-(Methylsulfonyl)benzyl)-7-(4-(2-(pyridin-2-yl)ethyl)piperazin-1-yl)benzofuran-2-carboxamide]
2.2 nM	37 nM	–	Cn1cnc(CNC(=O)c2cc3cccc(N4CCN(CCc5ccccn5)CC4)c3o2)c1 [Example 5, N-((1-Methyl-1H-imidazol-4-yl)methyl)-7-(4-(2-(pyridin-2-yl)ethyl)piperazin-1-yl)benzofuran-2-carboxamide]
–	82 nM	–	CC(=O)N1CCC(NC(=O)c2cc3cccc(N4CCN(CCc5ccccn5)CC4)c3o2)CC1 [Example 6, N-(1-Acetylpiperidin-4-yl)-7-(4-(2-(pyridin-2-yl)ethyl)piperazin-1-yl)benzofuran-2-carboxamide]
0.59 nM	9 nM	–	CC(NC(=O)c1cc2cccc(N3CCN(CCc4ccccn4)CC3)c2o1)c1ccccn1 (stereo not shown) [Example 7, N-(1-(Pyridin-2-yl)ethyl)-7-(4-(2-(pyridin-2-yl)ethyl)piperazin-1-yl)benzofuran-2-carboxamide]
0.29 nM	0.28 nM	–	O=C(NC1CCN(c2ncccc2Cl)CC1)c1cc2cccc(N3CCN(CCc4ccccn4)CC3)c2o1 [Example 8, N-(1-(3-Chloropyridin-2-yl)piperidin-4-yl)-7-(4-(2-(pyridin-2-yl)ethyl)piperazin-1-yl)benzofuran-2-carboxamide]
0.44 nM	–	–	N#Cc1ccc(CNC(=O)c2cc3cccc(N4CCN(CCc5ccccn5)CC4)c3o2)cc1 [Example 9, N-(4-Cyanobenzyl)-7-(4-(2-(pyridin-2-yl)ethyl)piperazin-1-yl)benzofuran-2-carboxamide]
0.16 nM	2.1 nM	–	CN(C)C(=O)c1cc2cccc(N3CCN(CCc4ccccn4)CC3)c2o1 [Example 11, N,N-Dimethyl-7-(4-(2-(pyridin-2-yl)ethyl)piperazin-1-yl)benzofuran-2-carboxamide]
0.11 nM	0.88 nM	–	CNC(=O)c1cc2cccc(N3CCN(CCc4ccccn4)CC3)c2o1 [Example 12, N-Methyl-7-(4-(2-(pyridin-2-yl)ethyl)piperazin-1-yl)benzofuran-2-carboxamide]
–	6.5 nM	–	O=C(NC1CC1)c1cc2cccc(N3CCN(CCc4ccccn4)CC3)c2o1 [Example 13, N-Cyclopropyl-7-(4-(2-(pyridin-2-yl)ethyl)piperazin-1-yl)benzofuran-2-carboxamide]
3.3 nM	42 nM	–	O=C(NC1CC(F)(F)C1)c1cc2cccc(N3CCN(CCc4ccccn4)CC3)c2o1 [Example 14, N-(3,3-Difluorocyclobutyl)-7-(4-(2-(pyridin-2-yl)ethyl)piperazin-1-yl)benzofuran-2-carboxamide]
1.4 nM	16 nM	–	O=C(c1cc2cccc(N3CCN(CCc4ccccn4)CC3)c2o1)N1CCC1 [Example 15, Azetidin-1-yl(7-(4-(2-(pyridin-2-yl)ethyl)piperazin-1-yl)benzofuran-2-yl)methanone]
0.78 nM	4.4 nM	–	O=C(c1cc2cccc(N3CCN(CCc4ccccn4)CC3)c2o1)N1CCCC1 [Example 16, (7-(4-(2-(Pyridin-2-yl)ethyl)piperazin-1-yl)benzofuran-2-yl)(pyrrolidin-1-yl)methanone]
2 nM	3.3 nM	–	CS(=O)(=O)Cc1ccc(CNC(=O)c2cc3cccc(N4CCN(CCc5ccccn5)CC4)c3o2)cc1 [Example 17, N-(4-(Methylsulfonylmethyl)benzyl)-7-(4-(2-(pyridin-2-yl)ethyl)piperazin-1-yl)benzofuran-2-carboxamide]
1.3 nM	0.7 nM	–	COc1cccc(CCNC(=O)c2cc3cccc(N4CCN(CCc5ccccn5)CC4)c3o2)c1 [Example 18, N-(3-Methoxyphenethyl)-7-(4-(2-(pyridin-2-yl)ethyl)piperazin-1-yl)benzofuran-2-carboxamide]
0.99 nM	10 nM	–	CN(Cc1cccc(S(C)(=O)=O)c1)C(=O)c1cc2cccc(N3CCN(CCc4ccccn4)CC3)c2o1 [Example 19, N-Methyl-N-(3-(methylsulfonyl)benzyl)-7-(4-(2-(pyridin-2-yl)ethyl)piperazin-1-yl)benzofuran-2-carboxamide]
1.1 nM	7.6 nM	–	N#Cc1ccc(CNC(=O)c2cc3cccc(N4CCN(CCc5ccccn5)CC4)c3o2)cn1 [Example 20, N-((6-Cyanopyridin-3-yl)methyl)-7-(4-(2-(pyridin-2-yl)ethyl)piperazin-1-yl)benzofuran-2-carboxamide]
2.6 nM	63 nM	–	CN(Cc1cccnc1)C(=O)c1cc2cccc(N3CCN(CCc4ccccn4)CC3)c2o1 [Example 21, N-Methyl-7-(4-(2-(pyridin-2-yl)ethyl)piperazin-1-yl)-N-(pyridin-3-ylmethyl)benzofuran-2-carboxamide]
–	17 nM	–	Cn1cnc(CCNC(=O)c2cc3cccc(N4CCN(CCc5ccccn5)CC4)c3o2)c1 [Example 30, N-(2-(1-Methyl-1H-imidazol-4-yl)ethyl)-7-(4-(2-(pyridin-2-yl)ethyl)piperazin-1-yl)benzofuran-2-carboxamide]
–	66 nM	–	COc1ccnc(CCN2CCN(c3cccc4cc(C(=O)N(C)C)oc34)CC2)c1 [Example 39, 7-(4-(2-(4-Methoxypyridin-2-yl)ethyl)piperazin-1-yl)-N,N-dimethylbenzofuran-2-carboxamide]
–	73 nM	–	CN(C)C(=O)c1cc2cccc(N3CCN(CCc4cc(C#N)ccn4)CC3)c2o1 [Example 41, 7-(4-(2-(4-Cyanopyridin-2-yl)ethyl)piperazin-1-yl)-N,N-dimethylbenzofuran-2-carboxamide]
0.16 nM	–	–	COc1cccnc1CCN1CCN(c2cccc3cc(C(=O)N(C)C)oc23)CC1 [Example 48, 7-(4-(2-(3-Methoxy-2-pyridyl)ethyl)piperazin-1-yl)-N,N-dimethylbenzofuran-2-carboxamide]
–	14 nM	–	CC(=O)N1CCc2cc(CCN3CCN(c4cccc5cc(C(=O)N6CCC6)oc45)CC3)ccc21 [Example 49, 1-(5-(2-(4-(2-(Azetidine-1-carbonyl)benzofuran-7-yl)piperazin-1-yl)ethyl)indolin-1-yl)ethanone]
–	–	0.87 nM	COc1ccc(NC(=O)c2ccc(-c3ccncc3)c(C)c2)cc1N1CCN(C)CC1 [[^3H]-GR125743, reference compound]
